Results from PMC2811193, “Complementary Roles in Cancer Prevention: Protease Inhibitor Makes the Cancer Preventive Peptide Lunasin Bioavailable” (PLoS ONE, 2010).

Legend:
[1] = Lunasin in blood and liver of rats fed LES diet for 4 weeks; type: in vivo; conditions: female, Sprague-Dawley, rat, po, 0.25 % of the diet, rats fed dietary LES for 4 weeks
Description: Sprague-Dawley Rats (Female, 5-weeks old) were purchased from Central Laboratory Animal Inc. (Korea), and experiments were done according with guidelines of the Animal Center at Andong National University (Andong, Korea). Five rats were fed ad libitum with LES and potato starch (0.25% of the diet) for 4 weeks, and then sacrificed. Livers and serum were collected and freeze-dried immediately. One gram of the freeze-dried tissues was extracted with 0.1 M PBS (pH 7.0) (buffer∶tissue ratio (v/w) = 1∶3) at 4°C for 24 hrs, and then centrifuged at 15000 rpm for 1 h. The supernatant protein was further purified by ion exchange chromatography on Biogel resin AG 1-X4 (BioRad), as described by Jeong et al.. Lunasin was further purified by injecting 20 µl of filtrate into the HPLC system equipped with a C18 column (Proteo 90A, Phenomenex Co., Torrance, CA, USA) equilibrated at ambient temperature and an UV detector (295 nm) stabilized with the mobile phase (acetonitrile∶water = 4∶6), at a flow rate of 2.5 ml/min for 15 min. Lunasin was identified by comparison with the retention time of standard synthetic lunasin peak. The lunasin fraction was collected, freeze dried and analyzed by SDS-PAGE and Western-Blot as described above.
Supplementary file pone.0008890.s002.tif: Figure S2 Lunasin was extracted from blood and liver of rats fed control and lunasin-enriched soy (LES) diets for four weeks. […]

skin papilloma = conditions: applied topically at 250 mg/week; SENCAR mice; cited from earlier work
Description: […] […] This is consistent with another observation that lunasin slows down epidermal cell proliferation in mouse skin in the absence and presence of DMBA using a ^2H2O label ...

[2] = test system: MDA-MB-231 tumor xenografts; experiment: Breast cancer prevention in MDA-MB-231 xenograft mouse model; type: in vivo, athymic NCr-nu/nu mice; conditions: for tumor incidence (mice showing tumors) / tumor incidence lower compared with the BBI group / tumor incidence lower compared with the control: seven weeks post-cells injection
Procedure: Human MDA-MB-231 breast cancer cells were obtained from ATCC and grown in Leibovitz's L-15 Medium supplemented with 10% FBS, 100 unit/ml penicillin, and 100 µg/ml streptomycin (Invitrogen), in a humidified atmosphere at 37°C.
Mice protocol was approved by ACUC (University of California, Berkeley, CA, USA). Thirty-two six weeks-old athymic NCr-nu/nu mice (National Cancer Institute, Frederick, MD, USA) were acclimatized for 1 week and randomly divided into four groups (n = 8): control group (receiving PBS), BBI-group (receiving BBI at 20 mg/kg body weight), and two lunasin-groups (receiving synthetic lunasin [Chengdu KaiJie Bio-Pharmaceutical Co., Chengdu, P.R. China] at 20 mg/kg body weight and 4 mg/kg body weight). After two months of i.p. treatment three times a week, mice were injected subcutaneously in the right flank with 1×10^7 MDA-MB-231 cells suspended in 0.1 ml of Matrigel Basement Membrane Matrix (Becton Dickinson, Bedford, MA, USA). Tumor growth was monitored by palpation, and the onset when tumors were detectable was noted. Tumor size was measured with calipers, and tumor volume was calculated assuming the shape as ellipsoid. Tumor incidence in percentage was calculated as the number of tumor-bearing mice divided by the total number of mice in each group, whereas tumor generation was calculated as the total number of tumors divided by total number of mice in each group. The volume of the tumor was determined using the following formula: tumor volume = length × width^2 ×0.523 [41].
At the end of the experiment, animals were sacrificed, and tumors were dissected and weighed. Individual tumors were split for fixation in the Shando Glyo-Fixx™ (Thermo Scientific, Pittsburgh, PA, USA) for histological examination. The paraffin-embedded sections were stained with hematoxylin and eosin (H&E).

[3] = test system: Pancreatin from porcine pancreas; experiment: In vitro digestion of lunasin with pancreatin, with or without protease inhibitors; type: in vitro ADME; conditions: pre-incubation with inhibitor 30 min at 25°C, pancreatin 1 h at 37°C, Western-Blot band intensity
Procedure: (§1) Figure 2 Soy-derived BBI and KTI protect synthetic lunasin from in vitro digestion. The upper, lighter bands are Coomassie Blue protein stains and the lower, darker bands are Western blots. (M) Markers, (1) Lunasin (600 ng) + pancreatin (600 ng) incubated for 0 h at 37°C, (2) Lunasin (600 ng) + pancreatin (600 ng) incubated for 1 h at 37°C, (3) Lunasin (600 ng) + BBI (18,000 ng, unboiled) + pancreatin (600 ng) incubated for 1 h at 37°C, (4). Lunasin (600 ng) + KTI (18,000 ng, unboiled) + pancreatin (600 ng) incubated for 1 h at 37°C, (5) Lunasin (600 ng) + BBI (18,000 ng, boiled) + pancreatin (600 ng) incubated for 1 h at 37°C, (6) Lunasin (600 ng)+KTI (18,000 ng, boiled) + pancreatin (600 ng) incubated for 1 h at 37°C, (7) BBI (unboiled), (8) KTI (unboiled).
(§2) In vitro digestion of lunasin was carried out following the method published in the United States Pharmacopeia. Synthetic lunasin (American Peptide Company, Inc. Sunnyvale, CA, USA) (5 µg) was incubated with the protease inhibitors BBI or KTI (Sigma, St. Louis, MO, USA) for 30 min at 25°C. Pancreatin from porcine pancreas (Sigma) was added (enzyme∶protein ratio of 1∶10) and solution was incubated at 37°C for 1 h. Tris-tricine sample buffer was added at the end of the reaction and immediately stopped by placing the tubes in a boiling water bath for 5 min. The digests were analyzed by SDS-PAGE and Western-Blot following the protocol previously described.

pancreatin = experiment: as above; type: in vitro ADME, porcine; conditions: pig, pancreatin from porcine pancreas; in the presence of boiled KTI; pre-incubation with inhibitor 30 min at 25°C; pancreatin 1 h at 37°C; Western-Blot band intensity; read-out: lunasin remaining intact after digestion with pancreatin
Procedure: as §1, §2

[4] = 4 mg/kg body weight i.p., n = 8

SMILES: CC[C@H](C)[C@H](NC(=O)[C@H](CCCCN)NC(=O)[C@H](CCC(=O)O)NC(=O)[C@H](CCSC)NC(=O)[C@@H](NC(=O)[C@H](Cc1c[nH]cn1)NC(=O)[C@H](CCCCN)NC(=O)[C@H](CCC(=O)O)NC(=O)[C@H](CS)NC(=O)[C@@H]1CCCN1C(=O)[C@@H](NC(=O)[C@H](CC(C)C)NC(=O)[C@H](CC(N)=O)NC(=O)[C@@H](NC(=O)CNC(=O)[C@H](CCC(N)=O)NC(=O)[C@H](CC(C)C)NC(=O)[C@H](CCC(N)=O)NC(=O)[C@H](CCCCN)NC(=O)[C@H](CCCNC(=N)N)NC(=O)[C@H](CS)NC(=O)[C@H](CO)NC(=O)[C@H](CC(=O)O)NC(=O)[C@H](CCC(N)=O)NC(=O)[C@H](CCC(N)=O)NC(=O)[C@H](Cc1c[nH]cn1)NC(=O)[C@H](CCC(N)=O)NC(=O)[C@H](Cc1c[nH]c2ccccc12)NC(=O)[C@H](CCCCN)NC(=O)[C@@H](N)CO)C(C)C)[C@@H](C)O)[C@@H](C)CC)C(=O)N[C@@H](CCC(N)=O)C(=O)NCC(=O)N[C@@H](CCCNC(=N)N)C(=O)NCC(=O)N[C@@H](CC(=O)O)C(=O)N[C@@H](CC(=O)O)C(=O)N[C@@H](CC(=O)O)C(=O)N[C@@H](CC(=O)O)C(=O)N[C@@H](CC(=O)O)C(=O)N[C@@H](CC(=O)O)C(=O)N[C@@H](CC(=O)O)C(=O)N[C@@H](CC(=O)O)C(=O)N[C@@H](CC(=O)O)C(=O)O [lunasin]
- level at 672 h ([1]; blood, present as a monomer, Western-blot after anion exchange-HPLC purification, read-out: lunasin concentration in blood): 17.5 ng/mL
- tissue level at time at 672 h ([1]; liver, exists as a dimer, Western-blot, read-out: lunasin concentration in liver): 3100 ng/g
- suppression of skin papilloma formation compared with the control (skin papilloma): 70%
- tumor incidence (mice showing tumors) ([2]; 4 mg/kg body weight i.p. three times a week, n = 8): 50%
- decrease of the sizes of tumors (tumor volume) versus control mice [2, 4]: 34%
- tumor generation lower relative to BBI group [2, 4]: 69%
- tumor incidence lower compared with the BBI group ([2]; 4 mg/kg body weight i.p.): 43%
- tumor incidence lower compared with the control ([2]; 4 mg/kg body weight i.p.): 33%
- tumor generation lower relative to control ([2]; 4 mg/kg body weight i.p., total number of tumors / total number of mice, P = 0.029 vs control, n = 8): 70%
- tumor incidence (mice showing tumors) ([2]; 20 mg/kg body weight i.p. three times a week, n = 8): 38%
- decrease of the sizes of tumors (tumor volume) versus control mice ([2]; 20 mg/kg body weight i.p., n = 8): 23%
- tumor incidence lower compared with the BBI group ([2]; 20 mg/kg body weight i.p.): 57%
- tumor incidence lower compared with the control ([2]; 20 mg/kg body weight i.p.): 49%
- tumor generation ([2]; 20 mg/kg body weight i.p., versus vehicle-treated group): reduced
- weight of tumors at the end of the experiment ([2]; both doses of lunasin (20, 4 mg/kg) compared to control-group (P = 0.2134, 0.1880) and BBI-group (P = 0.0909, 0.0569)): lower
- body weight ([2]; i.p. three times a week, BBI 20 mg/kg, lunasin 20 and 4 mg/kg body weight, compared among the four groups, n = 8): No significant differences
- appearance of tumors ([2]; lunasin 20 and 4 mg/kg i.p.): delay in the appearance of tumors
- lunasin remaining intact after digestion with pancreatin ([3]; in the presence of boiled BBI): 98%
- lunasin remaining intact after digestion with pancreatin ([3]; in the presence of unboiled BBI): Approximately 93%
- lunasin remaining intact after digestion with pancreatin ([3]; in the presence of unboiled KTI): ~97%
- remaining at 1 h (pancreatin): 84%
